By inhibition is commonly meant the drop in the measured response relative to a control, in per cent. What is called IC50 is the point on the concentration scale where inhibition reaches its midpoint.

These results are taken from patent US5965605A, “Inhibition of the binding human IgE to its receptor by tetracyclic compounds for the alleviation of IgE-mediated immune response” (Heska Corporation, priority 1997, dated 1999).

Assay [1] deals with human IgE / soluble FcεRI α (Fc-FcεRIα fusion protein). Kind of assay: Protein-based IgE-FcεRI binding assay (ELISA). As to conditions: for % Inhibition of IgE/FcεRI binding: 10 μg/ml. As to the method:
A protein-based in vitro assay was developed to screen for compounds which block the interaction between IgE and FcεRI. This assay used human IgE and soluble FcεRI α proteins which were prepared as outlined below. As will be described more below, the assay was performed in the format of an Enzyme-linked ImmunoSorbent Assay (ELISA) as follows. ELISA plates were prepared by coating 96-well plates with soluble FcεRI α protein. In the binding step, biotinylated IgE was captured by the FcεRI α in the wells. In the detection step, bound biotinylated IgE was quantitated by the addition of avidin-horseradish peroxidase and a chromogenic substrate. For the screening of antagonists, the IgE and FcεRI binding assay was performed in the presence of various testing compounds. Compounds that inhibit the interaction between IgE and FcεRI α could be readily detected. This assay was then applied to screen tens of thousand of compounds from a diversified chemical library.
To provide IgE for the ELISA, a recombinant IgE DNA construct was built by ligating a mouse heavy chain variable region, Vh, gene fragment to a human IgE heavy chain, Cε.
The growth medium collected from the above transfected cell culture was concentrated 30-50 times by membrane filtration (Filtron, Northboro, Mass.) and passed through a column of NIP (Genosys Biotechnologies Inc.)-bovine serum albumin (BSA) sepharose. The bound IgE was subsequently eluted from NIP-BSA sepharose using 5 M MgCl2. The eluate was then dialyzed in phosphate buffered saline (PBS). The integrity of the purified IgE was analyzed by SDS-polyacrylamide gel electrophoresis.
To provide soluble FcεRI α protein for ELISA, a DNA construct was made to produce soluble FcεRI α as a protein fused to the Fc region of the human immunoglobulin G heavy chain. The protein product of the construct will he termed Fc-FcεRIα.
The culture media of the cells producing Fc-FcεRI α fusion protein was collected and passed through a Protein A Sepharose column (Repligen, Cambridge, Mass.). The bound fusion protein was eluted from the Protein A Sepharose in 100 mM sodium citrate buffer (pH 4.0) and immediately neutralized with 0.1 volume of 1M Tris-hydrochloride, pH 8. The integrity of the purified protein was analyzed by SDS-polyacrylamide gel electrophoresis.
Fc-FcεRIα was diluted to 0.4 μg/ml in PBS and was used to coat 96-well plates. One hundred microliters of the FcεRIα fusion protein was added to wells of the 96-well plates, and the plate was incubated at 4° C. for 20 hr and washed twice with PBS/T (PBS containing 0.05% Tween-20). The non-specific binding sites in each of the wells were blocked with 200 μl of blocking buffer (PBS containing 1% of BSA and 1% of goat serum) at 37° C. for 2 hr. The plates were then washed 4 times with PBS/T and stored frozen at -20° C. The plates were thawed at room temperature just before use.
IgE was biotinylated as follows. Ten microliters of a 40 mg/ml sulfosuccimidyl 6-(biotinamido)-hexanolate (Pierce, Rockford, Ill.) in dimethylsulphoxide was added to 1 ml of 1 mg/ml IgE in sodium bicarbonate buffer, pH 8.0. After a 4 hr incubation at room temperature, the biotinylation was terminated by the addition of 25 μl of 2M Tris hydrochloride, pH 8 and the resulting biotinylated IgE was diayzed against PBS.
One hundred microliter of this solution was added to wells of a 96-well plate which had been previously coated with Fc-FcεRIα. […] After an additional one hour incubation at room temperature,the plate was again washed four times with PBS/T. The reaction with Avidin-HRP was developed by the addition of 100 μl of K-blue (Elisa Technologies, Lexington, Ky.) to each well.

Assay [2] concerns the target T1, human FcεRI transfected rat basophil leukemia cell line, SX38 (Homo sapiens, UniProt P01854+P12319).
T1 construct: biotinylated recombinant IgE (mouse VH, human Cε, J558L)
The assay is described as follows: Cell-based IgE-FcεRI binding assay. As to conditions: for IC50: read-out: IC50, inhibition of IgE-FcεRI binding (converted). As to the method:
About 1×10^5 cells in 50 μl of medium were seeded in the wells of 96-well flat bottom plates. […] Forty microliters of this solution was applied to each well and incubated at room temperature for two hours. The plates were washed three times with PBS, and 40 μl of avidin-horseradish peroxidase, at 1 μg/ml in PBS, was added to each well. After an additional hour of incubation at room temperature, the plate was again washed three times with PBS. The subsequent steps for the measurement of the bound IgE were performed as described in the protein-based IgE-FcεRI binding assay.

The test system of another assay is IgE/FcεRI. Kind of assay: in situ rat passive cutaneous anaphylaxis (PCA) model. The class given is in vivo, Sprague Dawley rats. As to conditions: in situ rat PCA model. The text has this: The tetracyclic compounds that antagonized the IgE and FcεRIα interaction identified in the protein-based assay were further evaluated in the rat PCA model (Haak-Frendscho, et al., J. Immunol., 151:351-358, 1993). […] Mouse anti-dinitrophenyl IgE (Sigma ImmunoChemicals, St. Louis, Mo.) is a bifunctional antibody which binds to dinitrophenyl as well as FcεRI. Exposure of anti-dinitrophenyl-IgE to dinitrophenyl-albumin causes aggregation of the antibody and induces the IgE mediated immune response. […] Fifty microliters of these solutions were injected into the skin of the shaved back of Sprague Dawley rats (Taconic, Germantown, N.Y.). As a positive control, the same amount of anti-dinitrophenyl-IgE in the absence of a tetracyclic compound was injected into the skin of the same rat at a different site. After a period of two hours the sensitized rats were challenged with an intravenous injection of 1 mg/ml of dinitrophenyl-human albumin (Sigma ImmunoChemicals, St. Louis, Mo.) in 1% Evan's blue dye. Thirty minute later, the rats were killed and skinned. Percent inhibition was calculated by the reduction of blue dye at the tetracyclic compound treated injection sites versus the positive control sites.

In assay [3] the test system is rat basophil leukemia cells (RBL cells). Kind of assay: Hexosaminidase release assay. The class given is cell-based. As to conditions: read-out: % Inhibition of IgE mediated hexosaminidase release. As for the experimental part: Tetracyclic Compounds that antagonized the IgE and FcεRIα interaction identified in the protein-based assay and cell-based assay were further evaluated in a screening assay using rat basophil leukemia cells (RBL cells). […] About 2×10^5 RBL cells were seeded per well in a 96 well plate and were incubated overnight at 37° C. A mixture of biotinylated mouse IgE (100 μl of 0.125 μg/ml) and a tetracyclic compound, e.g. compound 2, in medium was added lo each well and was incubated for 1 hour at 37° C. The cells were then washed twice with triggering buffer (119 mM NaCl, 5 mM KCl, 25 mM disodium PIPES, 5.6 mM glucose, 1 mM CaCl2, 0.1% BSA), and pre-incubated in triggering buffer for 10 min. at 37° C. One hundred microliters of 0.02 μg/ml streptavidin in triggering buffer was then added and the cells were incubated for an additional 30 min. at 37° C. The 96 well plate is then centrifuged at 4° C. to pellet all cells, and 80 μl of the supernatant is harvested on ice and transferred to another 96 well plate. As a positive control, two aliquots of about 2×10^5 RBL cells were lysed with 100 μl of 0.2% Triton in triggering buffer, and the supernatant was harvested after centrifugation to pellet all cell debris. Addition of streptavidin to RBL cells, which have been incubated with biotinylated IgE will trigger the release of IgE mediated allergy mediators, such as histamine. Antagonization of IgE/FcεRI binding by a tetracyclic compound results in the release of a reduced level of allergy mediators. The release of allergy mediators was quantitated by assaying for the presence of the enzyme hexosaminidase in the supernatant The concentration of hexosaminidase was determined by hydrolysis of its substrate, p-NAG (p-nitrophenyl-N-acetate-[…], Sigma Chemical Co.) in citrate buffer (pH 4.5) at 37° C. for 1 hr.

T1 sequence (P12319 26-257): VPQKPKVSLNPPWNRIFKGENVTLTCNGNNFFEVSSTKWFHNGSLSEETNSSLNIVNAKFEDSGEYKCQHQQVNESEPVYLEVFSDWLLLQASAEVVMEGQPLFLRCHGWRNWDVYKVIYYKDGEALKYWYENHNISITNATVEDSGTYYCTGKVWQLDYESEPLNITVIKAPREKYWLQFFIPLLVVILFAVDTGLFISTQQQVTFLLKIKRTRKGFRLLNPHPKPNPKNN
T1 sequence (P01854 whole entry): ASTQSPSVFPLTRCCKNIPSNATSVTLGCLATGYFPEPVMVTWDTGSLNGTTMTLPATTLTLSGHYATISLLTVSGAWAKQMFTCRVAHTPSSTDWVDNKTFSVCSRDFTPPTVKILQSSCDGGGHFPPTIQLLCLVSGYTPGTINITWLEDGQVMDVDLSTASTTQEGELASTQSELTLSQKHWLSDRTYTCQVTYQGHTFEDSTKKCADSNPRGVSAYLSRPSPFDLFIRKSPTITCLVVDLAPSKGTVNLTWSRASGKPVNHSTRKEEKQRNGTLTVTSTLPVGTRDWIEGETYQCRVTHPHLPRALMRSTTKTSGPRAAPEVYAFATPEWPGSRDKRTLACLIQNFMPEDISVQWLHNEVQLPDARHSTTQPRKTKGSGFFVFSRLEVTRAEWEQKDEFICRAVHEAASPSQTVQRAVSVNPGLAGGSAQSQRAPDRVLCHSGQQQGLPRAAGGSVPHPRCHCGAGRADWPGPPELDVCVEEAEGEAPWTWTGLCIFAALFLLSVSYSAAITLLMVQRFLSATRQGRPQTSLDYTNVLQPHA
T1 sequence (Q01362 whole entry partner): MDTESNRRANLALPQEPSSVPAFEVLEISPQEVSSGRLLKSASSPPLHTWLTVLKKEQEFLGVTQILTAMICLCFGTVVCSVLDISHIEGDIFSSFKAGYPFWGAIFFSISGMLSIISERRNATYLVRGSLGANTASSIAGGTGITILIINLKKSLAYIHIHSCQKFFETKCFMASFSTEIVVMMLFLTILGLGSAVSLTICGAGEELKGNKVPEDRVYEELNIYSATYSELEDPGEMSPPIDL
T1 sequence (P30273 19-86 partner): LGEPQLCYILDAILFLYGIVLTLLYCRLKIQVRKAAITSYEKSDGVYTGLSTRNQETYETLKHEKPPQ

As for `O=c1c(Br)cc2c(-c3ccccc3S(=O)(=O)O)c3cc(Br)c(O)c(O)c3oc-2c1O` [Compound 8], in assay [1], the “IC50, inhibition of IgE/FcεRI binding” value turned out to be 0.65 µg/mL and the “% Inhibition of IgE/FcεRI binding” value worked out at 87%.

The molecule `CCOC(=O)c1ccccc1-c1c2cc(Br)c(=O)c(Br)c-2oc2c(Br)c(O)c(Br)cc12` [Compound 4] registered an inhibition at 10 µg/mL in assay [2] (10 μg/ml) of 93%. The IC50 in assay [2] is 5.33 µM. Also, the “IC50, inhibition of anaphylaxis in the rat PCA model” value with IgE/FcεRI was determined as 2.90 µg/mL. In assay [1], the “IC50, inhibition of IgE/FcεRI binding” value is 0.82 µg/mL and the “% Inhibition of IgE/FcεRI binding” value was determined as 98%.

`COC(=O)c1ccccc1-c1c2cc(Br)c(=O)c(Br)c-2oc2c(Br)c(O)c(Br)cc12` [Compound 7] came in with an inhibition at 10 µg/mL in assay [2] (10 μg/ml) of 84%. Besides, the IC50 in assay [2] was 6.65 µM. Also, in assay [1], the “IC50, inhibition of IgE/FcεRI binding” value stood at 1.46 µg/mL and the “% Inhibition of IgE/FcεRI binding” value was 87%.

Turning to `CCOC(=O)c1c(Cl)c(Cl)c(Cl)c(Cl)c1-c1c2cc(Br)c(=O)c(Br)c-2oc2c(Br)c(O)c(Br)cc12` [Compound 3], in assay [1], the “IC50, inhibition of IgE/FcεRI binding” value came out at 4.30 µg/mL and the “% Inhibition of IgE/FcεRI binding” value amounted to 90%.

Turning to `O=C(O)c1c(Cl)c(Cl)c(Cl)c(Cl)c1-c1c2ccc(=O)c(O)c-2oc2c(O)c(O)ccc12` [Compound 6], in assay [1], the “IC50, inhibition of IgE/FcεRI binding” value is 0.63 µg/mL and the “% Inhibition of IgE/FcεRI binding” value was 83%.

Consider `O=C(O)c1c(Cl)c(Cl)c(Cl)c(Cl)c1-c1c2cc(I)c(=O)c(I)c-2oc2c(I)c(O)c(I)cc12` (single isomer, unassigned) [Compound 2], for which the “% Inhibition of IgE-FcεRI binding” value in assay [2] (10 μg/ml) was found to be 62%. Also, the 50% inhibitory concentration (IC50) in assay [2] is 5.65 µM. Moreover, the “IC50, inhibition of anaphylaxis in the rat PCA model” value in the assay on IgE/FcεRI came to 1.10 µg/mL. Also, in assay [3] (0.1 μg/ml), the inhibition at 0.1 µg/mL is 11%. The inhibition at 0.62 µg/mL in assay [3] (0.62 μg/ml) worked out at 19%. Further, the inhibition at 1.25 µg/mL in assay [3] (1.25 μg/ml) was determined as 75%. In assay [3] (2.5 μg/ml), the inhibition at 2.5 µg/mL worked out at 96%. In addition, the inhibition at 5 µg/mL in assay [3] (5 μg/ml) stood at 94%. Further, in assay [1], the “IC50, inhibition of IgE/FcεRI binding” value is 0.38 µg/mL and the “% Inhibition of IgE/FcεRI binding” value stood at 100%.

Turning to `O=C(O)c1c(Cl)ccc(Cl)c1-c1c2cc(I)c(=O)c(I)c-2oc2c(I)c(O)c(I)cc12` [Compound 5], in assay [1], the “IC50, inhibition of IgE/FcεRI binding” value was 0.56 µg/mL and the “% Inhibition of IgE/FcεRI binding” value is on record as 99%.
